The results in this text go back to paper PMC5357725, “Global update on the susceptibility of human influenza viruses to neuraminidase inhibitors, 2014–2015” (Antiviral Research, 2016).

Assay [1] concerns B/Yamagata-lineage neuraminidase (NA). Format: biochemical, influenza B/Yamagata-lineage virus.
The test system of assay [2] is B/Victoria-lineage neuraminidase (NA). Type of assay: biochemical, influenza B/Victoria-lineage virus.

Turning to `[H]/N=C(\N)N[C@H]1C=C(C(=O)O)O[C@@H]([C@H](OC)[C@H](O)CO)[C@@H]1NC(C)=O` [Laninamivir, laninamivir], the “inhibition class (NI, RI, HRI)” value in assay [1] and in assay [2] was “NI (key: NI: B viruses <5-fold; RI: B viruses 5- to 50-fold; HRI: B viruses >50-fold)” each time. `CC(=O)N[C@H]1[C@H]([C@H](O)[C@H](O)CO)OC(C(=O)O)=C[C@@H]1N=C(N)N` [Zanamivir, zanamivir]: in assay [2], the “inhibition class (NI, RI, HRI)” value was “NI (key: NI: B viruses <5-fold; RI: B viruses 5- to 50-fold; HRI: B viruses >50-fold)”.
